Results: article PMC6422671 (British Journal of Clinical Pharmacology, 2019)
“Also recorded” adds a separate entry of the source.

How the values were obtained:
[1] = test system: serum uric acid; assay: Serum uric acid (urate), exploratory pharmacodynamic outcome; table data mean (standard deviation); type: in vivo, healthy men; settings: for decrease in mean serum uric acid concentration: 48 hours after dosing
Description: The primary objective of the study was to evaluate the safety and tolerability of AZD4831 in healthy volunteers.
Data are mean (standard deviation).

[2] = test system: xanthine oxidase; parameters: method as in E Michaëlsson et al., manuscript in preparation; settings: in vitro; ref E Michaëlsson et al., manuscript in preparation; cited from earlier work

What does the source list for `C[C@@H](N)c1cc(Cl)ccc1Cn1c(=S)[nH]c(=O)c2[nH]ccc21` [AZD4831]?
Urate ([1]; 5 mg fasted, 24 h): 335.1 (75.2) µmol L^–1; Urate ([1]; 5 mg fasted, 48 h): 293.2 (64.0) µmol L^–1; Urate ([1]; 5 mg fasted, follow up): 326.3 (84.2) µmol L^–1; Urate ([1]; 15 mg fasted, 24 h): 364.7 (35.3) µmol L^–1; Urate ([1]; 15 mg fasted, 48 h): 331.6 (30.7) µmol L^–1; Urate ([1]; 15 mg fasted, 72 h): 355.7 (25.4) µmol L^–1; Urate ([1]; 15 mg fasted, 96 h): 366.5 (25.3) µmol L^–1; Urate ([1]; 15 mg fasted, 120 h): 370.8 (40.4) µmol L^–1; Urate ([1]; 15 mg fasted, follow up): 366.3 (47.1) µmol L^–1; Urate ([1]; 45 mg fasted, 24 h): 361.7 (111.9) µmol L^–1; Urate ([1]; 45 mg fasted, 48 h): 339.8 (113.0) µmol L^–1; Urate ([1]; 45 mg fasted, 72 h): 362.1 (111.6) µmol L^–1; Urate ([1]; 45 mg fasted, 96 h): 366.3 (112.8) µmol L^–1; Urate ([1]; 45 mg fasted, 120 h): 382.6 (93.3) µmol L^–1; Urate ([1]; 45 mg fasted, follow up): 397.6 (112.6) µmol L^–1; Urate ([1]; 45 mg fed, 24 h): 296.4 (62.8) µmol L^–1; Urate ([1]; 45 mg fed, 48 h): 283.0 (57.0) µmol L^–1; Urate ([1]; 45 mg fed, 72 h): 313.2 (47.1) µmol L^–1; Urate ([1]; 45 mg fed, 96 h): 316.0 (47.3) µmol L^–1; Urate ([1]; 45 mg fed, 120 h): 316.5 (67.1) µmol L^–1; Urate ([1]; 45 mg fed, follow up): 314.0 (77.9) µmol L^–1; Urate ([1]; 135 mg fasted, 24 h): 344.3 (18.6) µmol L^–1; Urate ([1]; 135 mg fasted, 48 h): 311.3 (18.6) µmol L^–1; Urate ([1]; 135 mg fasted, 72 h): 339.2 (13.9) µmol L^–1; Urate ([1]; 135 mg fasted, 96 h): 346.2 (25.0) µmol L^–1; Urate ([1]; 135 mg fasted, 120 h): 365.9 (42.1) µmol L^–1; Urate ([1]; 135 mg fasted, follow up): 370.3 (31.4) µmol L^–1; decrease in mean serum uric acid concentration ([1]; 135 mg, 95% CI 29.15, 114.39, mean predose 383.0 (SD 47.5)): 71.77 µmol/L; Urate ([1]; 405 mg fasted, 24 h): 262.8 (65.4) µmol L^–1; Urate ([1]; 405 mg fasted, 48 h): 244.6 (51.2) µmol L^–1; Urate ([1]; 405 mg fasted, 72 h): 256.1 (44.7) µmol L^–1; Urate ([1]; 405 mg fasted, 96 h): 289.3 (46.2) µmol L^–1; Urate ([1]; 405 mg fasted, 120 h): 307.2 (50.9) µmol L^–1; Urate ([1]; 405 mg fasted, follow up): 322.2 (59.1) µmol L^–1; decrease in mean serum uric acid concentration ([1]; 405 mg, 95% CI 58.90, 109.94, mean predose 329.0 (SD 54.2)): 84.42 µmol/L; inhibition of xanthine oxidase [2]: does not inhibit; also recorded: is not a substrate or an inhibitor
